{"source": "patent US10918654B1", "about": "“Rutin compositions” (Alps Pharmaceutical Ind. Co., Ltd., priority 2019, dated 2021)", "experiment": "Stability of the flavonoid in aqueous L-arginine/sodium ascorbate solution at 50° C., intact amount by HPLC", "format": "physicochemical", "conditions": "for amount of intact flavonoid remaining, of the initial amount in the solution: dissolved in water with L-arginine and sodium ascorbate, HPLC", "experimental": "A composition containing rutin, L-arginine, and ascorbate was prepared in water by mixing 0.0071 mol rutin with an aqueous solution containing 0.020 mol L-arginine, heating the mixture to 80° C. until the rutin dissolved completely, and adding 0.0010 mol sodium ascorbate.\nAfter cooling the above solution, the stability of rutin was tested by heating the mixture to 50° C. and quantifying the amount of intact rutin remaining by HPLC after 0 h, 5 h, and 24 h."}
{"compound": "C[C@@H]1O[C@@H](OC[C@H]2O[C@@H](Oc3c(-c4ccc(O)c(O)c4)oc4cc(O)cc(O)c4c3=O)[C@H](O)[C@@H](O)[C@@H]2O)[C@H](O)[C@H](O)[C@H]1O", "note": "[rutin]", "values": [{"measurement": "amount of intact flavonoid remaining, of the initial amount in the solution", "setting": "5 h at 50° C.", "result": 100, "unit": "%"}, {"measurement": "amount of intact flavonoid remaining, of the initial amount in the solution", "setting": "24 h at 50° C.", "result": 97.2, "unit": "%"}, {"measurement": "flavonoid degraded", "setting": "after 24 h at 50° C., with L-arginine and sodium ascorbate", "result": 2.8, "unit": "%"}]}
